We go through 12 compounds from patent publication US20110053966A1, “SYNERGISTIC FUNGICIDAL COMPOSITIONS CONTAINING A 5-FLUOROPYRIMIDINE DERIVATIVE FOR FUNGAL CONTROL IN CEREALS” (DOW AGROSCIENCES LLC, priority 2009, published 2011).

Structures are written as SMILES.

In assay [1] the test system is Septoria tritici (SEPTTR). Nature of the assay: 1-day protectant test (1DP) vs. leaf blotch of wheat. Format: in vivo. As to conditions: Zymoseptoria tritici, read-out: % DC Obs (percent disease control observed); for pest or weed control at 1.5 g/ha: application rate 1.5 g ai/Ha, SC formulation, track sprayer; for pest or weed control at 0.2 ppm: application rate 0.2 ppm. As to the method:
(§1) Evaluation of Curative and Protectant Activity of Fungicide Mixtures vs. Leaf Blotch of Wheat (Mycosphaerella graminicola; anamorph: Septoria tritici; Bayer code: SEPTTR)
(§2) Wheat plants (variety Yuma) were grown from seed in a greenhouse in plastic pots with a surface area of 27.5 square centimeters (cm2) containing 50% mineral soil/50% soil-less Metro mix, with 8-12 seedlings per pot. The plants were employed for testing when the first leaf was fully emerged, which typically took 7 to 8 days after planting. Test plants were inoculated with an aqueous spore suspension of Septoria tritici either 3-days prior to (3-day curative test; 3DC) or 1-day after fungicide treatments (1-day protectant test; 1DP). After inoculation the plants were kept at 100% relative humidity (one day in a dark dew chamber followed by two days in a lighted mist chamber) to permit spores to germinate and infect the leaf. The plants were then transferred to a greenhouse until disease symptoms were fully expressed.
(§3) For the mixture studies with compound of Formula IA: Treatments consisted of fungicides, including a compound of Formula IA, epoxiconazole, prothioconazole, azoxystrobin, pyraclostrobin, penthiopyrad, isopyrazam, bixafen, boscalid, prochloraz, chlorothalonil, and isobutyric acid (3S,6S,7R,8R)-8-benzyl-3-[(3-isobutyryloxymethoxy-4-methoxypyridine-2-carbonyl)-amino]-6-methyl-4,9-dioxo-[1,5]dioxonan-7-yl ester (compound A), applied either individually or as two-way mixtures with a compound of Formula IA. Technical grades of materials were dissolved in acetone to make stock solutions, which were then used to perform three-fold dilutions in acetone either for each individual fungicide component or for the two-way mixtures. Desired fungicide rates were obtained after mixing dilutions with nine volumes of water containing 110 parts per million (ppm) Triton X-100. Ten mL fungicide solutions were applied onto six pots of plants using an automated booth sprayer, which utilized two 6218-1/4 JAUPM spray nozzles operating at 20 pounds per square inch (psi) set at opposing angles to cover both leaf surfaces. All sprayed plants were allowed to air dry prior to further handling. Control plants were sprayed in the same manner with the solvent blank.
(§4) For the mixture studies with compound of Formula IB: Compound IB and the compound B or their two-way mixtures were diluted in three-fold series using suspension concentrate (SC) formulations in 0.1% Trycol 5941. Spray solutions were applied onto plants using a track sprayer with an application volume of 200 Liters/hectare (L/Ha).
(§5) When disease reached 80 to 100% on the control plants, infection levels were assessed on treated plants visually and scored on a scale of 0 to 100 percent. Percentage of disease control was then calculated using the ratio of disease on treated plants relative to control plants.
(§6) Colby's equation was used to determine the fungicidal effects expected from the mixtures. (See Colby, S. R. Calculation of the synergistic and antagonistic response of herbicide combinations. Weeds 1967, 15, 20-22.)
(§7) The following equation was used to calculate the expected activity of mixtures containing two active ingredients, A and B:
(§8) A=observed efficacy of active component A at the same concentration as used in the mixture;
(§9) B=observed efficacy of active component B at the same concentration as used in the mixture.

Assay [2] concerns Septoria tritici (SEPTTR). Nature of the assay: 3-day curative test (3DC) vs. leaf blotch of wheat. Format: in vivo. The conditions noted are these: Zymoseptoria tritici, read-out: % DC Obs (percent disease control observed); for pest or weed control at 1.5 g/ha: application rate 1.5 g ai/Ha, SC formulation, track sprayer; for pest or weed control at 0.2 ppm: application rate 0.2 ppm. How it is done:
as §1, §2, §3, §4, §5, §6, §7, §8, §9

Where [3] appears, read: 1DP SEPTTR, application rate 0.6 ppm.
The mark [4] stands for this setting: 1DP SEPTTR, application rate 1.8 ppm.
Setting [5] is: 3DC SEPTTR, application rate 0.6 ppm.
The mark [6] stands for this setting: 3DC SEPTTR, application rate 1.8 ppm.
[7] abbreviates: 1DP SEPTTR, application rate 5.6 ppm.
The mark [8] stands for this setting: 3DC SEPTTR, application rate 5.6 ppm.

For the compound `Fc1cc(Oc2cc(C(F)(F)F)ccn2)ccc1CCNc1ncnc2c(F)ccc(F)c12` [B, (5,8-Difluoroquinazolin-4-yl)-{2-[2-fluoro-4-(4-trifluoromethylpyridin-2-yloxy)-phenyl]-ethyl}-amine], the pest or weed control at 1.5 g/ha in assay [1] (1DP SEPTTR) turned out to be 36%; in assay [2] (3DC SEPTTR) it was 41%.
Take `N#Cc1c(Cl)c(Cl)c(Cl)c(C#N)c1Cl` [Chlorothalanil, 2,4,5,6-tetrachloro-1,3-benzenedicarbonitrile]: the pest or weed control at 13.5 ppm came to 0% in assay [1] (1DP SEPTTR, application rate 13.5 ppm) and 4% in assay [2] (3DC SEPTTR, application rate 13.5 ppm). For the same compound, the pest or weed control at 42 ppm in assay [1] (1DP SEPTTR, application rate 42 ppm) was 2%; in assay [2] (3DC SEPTTR, application rate 42 ppm), 4%. Besides, the pest or weed control at 125 ppm in assay [1] (1DP SEPTTR, application rate 125 ppm) was determined as 0%; in assay [2] (3DC SEPTTR, application rate 125 ppm), 6%.
Regarding `Cn1cc(C(=O)Nc2ccc(F)cc2-c2ccc(Cl)c(Cl)c2)c(C(F)F)n1` [Bixafen, N-(3′,4′-dichloro-5-fluoro[1,1′-biphenyl]-2-yl)-3-(difluoromethyl)-1-methyl-1H-pyrazole-4-carboxamide], the pest or weed control at 0.2 ppm in assay [1] (1DP SEPTTR) was 3%; in assay [2] (3DC SEPTTR), 6%. Also, the pest or weed control at 0.6 ppm in assay [1] (setting [3]) worked out at 7%; in assay [2] (setting [5]) it was 4%. Further, the pest or weed control at 1.8 ppm worked out at 12% in assay [1] (setting [4]) and 14% in assay [2] (setting [6]).
With `Fc1ccc([C@]2(Cn3cncn3)O[C@H]2c2ccccc2Cl)cc1` [Epoxiconazole, re1-1-[[(2R,3S)-3-(2-chlorophenyl)-2-(4-fluorophenyl)oxiranyl]methyl]-1H-1,2,4-triazole], the pest or weed control at 0.125 ppm is 2% in assay [1] (1DP SEPTTR, application rate 0.125 ppm) and 18% in assay [2] (3DC SEPTTR, application rate 0.125 ppm). Besides, the pest or weed control at 0.375 ppm in assay [1] (1DP SEPTTR, application rate 0.375 ppm) was determined as 83%; in assay [2] (3DC SEPTTR, application rate 0.375 ppm) it was 46%.
`CCCN(CCOc1c(Cl)cc(Cl)cc1Cl)C(=O)n1ccnc1` [Prochloraz, N-propyl-N-[2-(2,4,6-trichlorophenoxy)ethyl]-1H-imidazole-1-carboxamide]: in assay [1], the pest or weed control at 1.8 ppm came out at 10% and the pest or weed control at 5.6 ppm came to 33%. For the same compound, in assay [2], the pest or weed control at 1.8 ppm amounted to 24% and the pest or weed control at 5.6 ppm worked out at 22%.
Consider `OC(Cc1ccccc1Cl)(Cn1[nH]cnc1=S)C1(Cl)CC1` (centres unmarked) [Prothioconazole, 2-[2-(1-chlorocyclopropyl)-3-(2-chlorophenyl)-2-hydroxypropyl]-1,2-dihydro-3H-1,2,4-triazole-3-thione], for which the figures for the pest or weed control at 0.6 ppm in assay [1] (setting [3]) and in assay [2] (setting [5]) were 2% and 10%, respectively. The results for the pest or weed control at 1.8 ppm in assay [1] (setting [4]) and in assay [2] (setting [6]) were 2% and 8%, respectively. Also, the pest or weed control at 5.6 ppm in assay [1] (setting [7]) was determined as 25%; in assay [2] (setting [8]) it was 20%.
For the compound `Nc1nc(OCc2ccc(F)cc2)ncc1F` [Compound IB], the pest or weed control at 1.5 g/ha in assay [1] (1DP SEPTTR) worked out at 46%; in assay [2] (3DC SEPTTR), 74%.
Turning to `CO/C=C(/C(=O)OC)c1ccccc1Oc1cc(Oc2ccccc2C#N)ncn1` [Azoxystrobin, methyl (αE)-2-[[6-(2-cyanophenoxy)-4-pyrimidinyl]oxy]-α-(methoxymethylene)benzeneacetate], the pest or weed control at 0.6 ppm is 3% in assay [1] (setting [3]) and 10% in assay [2] (setting [5]). The pest or weed control at 1.8 ppm in assay [1] (setting [4]) was found to be 3%; in assay [2] (setting [6]), 14%. Also, the values for the pest or weed control at 5.6 ppm in assay [1] (setting [7]) and in assay [2] (setting [8]) were 33% and 20%, respectively.
In the case of `Cc1ccc(COc2ncc(F)c(N)n2)cc1` [Compound IA], the pest or weed control at 0.03 ppm amounted to 2% in assay [1] (1DP SEPTTR, application rate 0.03 ppm) and 2% in assay [2] (3DC SEPTTR, application rate 0.03 ppm). Besides, the pest or weed control at 0.1 ppm in assay [1] (1DP SEPTTR, application rate 0.1 ppm) was determined as 3%; in assay [2] (3DC SEPTTR, application rate 0.1 ppm), 4%. Besides, the pest or weed control at 0.3 ppm in assay [1] (1DP SEPTTR, application rate 0.3 ppm) amounted to 0%; in assay [2] (3DC SEPTTR, application rate 0.3 ppm) it was 10%. Further, the pest or weed control at 0.9 ppm came out at 22% in assay [1] (1DP SEPTTR, application rate 0.9 ppm) and 44% in assay [2] (3DC SEPTTR, application rate 0.9 ppm). Besides, the pest or weed control at 2.8 ppm in assay [1] (1DP SEPTTR, application rate 2.8 ppm) is 85%; in assay [2] (3DC SEPTTR, application rate 2.8 ppm), 94%. In addition, the pest or weed control at 8.3 ppm in assay [1] (1DP SEPTTR, application rate 8.3 ppm) came out at 98%; in assay [2] (3DC SEPTTR, application rate 8.3 ppm), 100%.
Take `CC(C)CC(C)c1sccc1NC(=O)c1cn(C)nc1C(F)(F)F` (centres unmarked) [Penthiopyrad, N-[2-(1,3-dimethylbutyl)-3-thienyl]-1-methyl-3-(trifluoromethyl)-1H-pyrazole-4-carboxamide]: the results for the pest or weed control at 0.2 ppm in assay [1] (1DP SEPTTR) and in assay [2] (3DC SEPTTR) were 2% and 8%, respectively. Moreover, the pest or weed control at 0.6 ppm in assay [1] (setting [3]) was 10%; in assay [2] (setting [5]) it was 4%. The pest or weed control at 1.8 ppm in assay [1] (setting [4]) worked out at 17%; in assay [2] (setting [6]) it was 4%.
In the case of `CC(C)C1C2CCC1c1c(NC(=O)c3cn(C)nc3C(F)F)cccc12` (centres unmarked) [Isopyrazam, 3-(difluoromethyl)-1-methyl-N-[1,2,3,4-tetrahydro-9-(1-methylethyl)-1,4-methanonaphthalen-5-yl]-1H-pyrazole-4-carboxamide], in assay [1], the pest or weed control at 0.6 ppm was found to be 15% and the pest or weed control at 1.8 ppm turned out to be 23%. Also, in assay [2], the pest or weed control at 0.6 ppm stood at 10% and the pest or weed control at 1.8 ppm worked out at 18%.
With `COc1ccnc(C(=O)N[C@H]2COC(=O)[C@H](Cc3ccccc3)[C@@H](OC(=O)C(C)C)[C@H](C)OC2=O)c1OCOC(=O)C(C)C` [A, Isobutyric acid (3S,6S,7R,8R)-8-benzyl-3-[(3-isobutyryloxymethoxy-4-methoxy-pyridine-2-carbonyl)-amino]-6-methyl-4,9-dioxo-[1,5]dioxonan-7-yl ester], in assay [1], the pest or weed control at 0.45 ppm is 3% and the pest or weed control at 1.35 ppm was 80%. Besides, in assay [2], the pest or weed control at 0.45 ppm turned out to be 22% and the pest or weed control at 1.35 ppm amounted to 52%.
